What was measured:
[1] = system: SK-BR-3 cells; test: Determination of cell growth inhibition (crystal violet staining method); assay type: cell-based; conditions: Homo sapiens; breast cancer cells SK-BR-3, 72 hours culture with test substance
Method: Cell growth was assayed by a crystal violet staining method. SK-BR-3 cells (HTB-30) purchased from American Type Culture Collection were inoculated at a concentration of 5,000 cells/well to a 96-well plate (#353075, BD Biosciences). After culture at 37° C. for 24 hours in a 5% CO2 incubator, each test substance was added thereto, and the cells were further cultured for 72 hours. A 25% glutaraldehyde solution (#17025-25, Nacalai Tesque, Inc.) was added thereto at a concentration of 20 μL/well per 200 μL of the medium, and the plate was incubated at room temperature for 20 minutes to fix the cells. The plate was washed with water and dried. Then, a solution containing 0.05% crystal violet (#038-17792, Wako Pure Chemical Industries, Ltd.) and 20% methanol was added thereto at a concentration of 100 μL/well, and the plate was incubated at room temperature for 20 minutes to stain the cells. The plate was washed with water and dried. A mixed solution of 0.05 M NaH2PO4 and ethanol (mixed in equal amounts) was added thereto at a concentration of 100 μL/well. Absorbance was measured at 540 nm using a microplate reader (MTP-450, Corona Electric Co., Ltd.) and used as an index for the number of cells per well. Percent inhibition (%) of cell growth by each compound of the present invention was determined according to the formula shown below with the absorbance of no drug addition group as a control. […] Percent inhibition (%)=(C−T)/C×100, wherein T: Absorbance of well with test substance addition C: Absorbance of well without test substance addition.

[2] = biological target: human HSP90 alpha protein (N-terminal, amino acids 2 to 236) (Homo sapiens (Human), UniProt P07900); test: Determination of HSP90-binding activity (AlphaScreen competitive assay with biotinylated geldanamycin); conditions: inhibition of binding of biotinylated geldanamycin to purified HSP90 N-terminal protein, read-out: HSP-binding activity IC50
Method: First, a purified HSP90 solution was prepared as follows: a human HSP90 alpha gene (NCBI Reference Sequence accession no. NM-005348) region corresponding to amino acids 2 to 236 of human HSP90 alpha protein (NCBI Reference Sequence accession no. NP-005339; full length: 732 amino acids) was inserted to pET-19b (Novagen; Merck KGaA) to construct a plasmid pET-HS[…] for expression of the HSP90 N-terminal protein having a His-tag at the N-terminus. E. coli (BL21(DE3), Stratagene Corp.) was transformed with pET-HS[…] and then cultured at 37° C. for 4 hours in the presence of 0.5 mM isopropyl-beta-D-thiogalactopyranoside (Sigma-Aldrich Corp.). The collected E. coli was suspended in a lysis buffer (50 mM Tris-HCl (pH 7.5), 200 mM NaCl) and sonicated. The sonicated cell solution was centrifuged (40,000×g, 20 minutes), and the supernatant was used as a crude extract. This crude extract was fractionated using Ni Sepharose High Performance (GE Healthcare Japan Corp.) chromatography and HiLoad 26/60 Superdex 75 pg (GE Healthcare Japan Corp.). Then, a fraction of HSP90 protein concentrates was prepared in a solution containing 50 mM Tris-HCl (pH 7.5) and 20% glycerol as a purified HSP90 solution. The purified HSP90 solution was divided and stored at -80° C. until use. HSP90-binding activity was determined by an AlphaScreen competitive assay system. […] After reaction at room temperature for 2 hours, biotinylated geldanamycin was added thereto at a concentration of 40 nM/well and further reacted for 1 hour. Detection mix (20 mM HEPES-KOH (pH 7.5), 0.5% BSA, 0.04 mg/mL Nickel Chelate Acceptor beads, 0.04 mg/mL Streptavidin-coated Donor beads) (#6760619C, PerkinElmer, Inc.) was added to each well in an amount equal to the amount of the reaction solution and reacted at room temperature for 1 hour in the dark. Then, fluorescence intensity was measured using Multilabel Plate Reader EnVision (PerkinElmer, Inc.). Percent inhibition (%) of the binding of biotinylated geldanamycin by each compound of the present invention was determined according to the formula shown below with the fluorescence signal of no test substance addition group as a control. […] Percent inhibition (%)=(C-T)/C×100, wherein T: Signal of well with test substance addition C: Signal of well without test substance addition.

SMILES	IC50 [1]	IC50 [2]
NC(=O)c1ccc(-c2nccc3c(-c4cncc(CO)c4)cccc23)cc1NC1CCC(O)CC1 (stereo not shown) [Example 17, 2-(4-Hydroxycyclohexylamino)-4-(5-(5-(hydroxymethyl)pyridin-3-yl)isoquinolin-1-yl)benzamide]	280 nM	100 nM
CC(C)(C)OC(=O)NCCc1cncc(-c2cccc3c(-c4ccc(C(N)=O)c(NC5CCC(O)CC5)c4)nccc23)c1 (stereo not shown) [Example 19, Tert-butyl 2-(5-(1-(4-carbamoyl-3-(4-hydroxycyclohexylamino)phenyl)isoquinolin-5-yl)pyridin-3-yl)ethylcarbamate]	880 nM	2690 nM
COc1cncc(-c2cccc3c(-c4ccc(C(N)=O)c(NC5CCC(O)CC5)c4)nccc23)c1 (stereo not shown) [Example 24, 2-(4-Hydroxycyclohexylamino)-4-(5-(5-methoxypyridin-3-yl)isoquinolin-1-yl)benzamide]	690 nM	650 nM
NC(=O)c1ccc(-c2nccc3c(-n4cnc(-c5ccncc5)c4)cccc23)cc1NC1CCC(O)CC1 (stereo not shown) [Example 25, 2-(4-Hydroxycyclohexylamino)-4-(5-(4-(pyridin-4-yl)-1H-imidazol-1-yl)isoquinolin-1-yl)benzamide]	110 nM	130 nM
CC(=O)Nc1cncc(-c2cccc3c(-c4ccc(C(N)=O)c(NC5CCC(O)CC5)c4)nccc23)c1 (stereo not shown) [Example 27, 4-(5-(5-Acetamidepyridin-3-yl)isoquinolin-1-yl)-2-(4-hydroxycyclohexylamino)benzamide]	540 nM	150 nM
NC(=O)c1ccc(-c2nccc3c(-c4cncc(NC(=O)CO)c4)cccc23)cc1NC1CCC(O)CC1 (stereo not shown) [Example 28, 4-(5-(5-(2-Hydroxyacetamide)pyridin-3-yl)isoquinolin-1-yl)-2-(4-hydroxycyclohexylamino)benzamide]	500 nM	230 nM
NC(=O)c1ccc(-c2nc(CN3CCOCC3)cc3c(-c4cnc5ccccc5c4)cccc23)cc1NC1CCC(O)CC1 (stereo not shown) [Example 31, 2-(4-Hydroxycyclohexylamino)-4-(3-(morpholinomethyl)-5-(quinolin-3-yl)isoquinolin-1-yl)benzamide]	580 nM	800 nM
NC(=O)c1ccc(-c2nccc3c(-n4cnc(-c5cccnc5)c4)cccc23)cc1NC1CCC(O)CC1 (stereo not shown) [Example 32, 2-(4-Hydroxycyclohexylamino)-4-(5-(4-(pyridin-3-yl)-1H-imidazol-1-yl)isoquinolin-1-yl)benzamide]	20 nM	80 nM
CNc1cncc(-c2cccc3c(-c4ccc(C(N)=O)c(NC5CCC(O)CC5)c4)nccc23)c1 (stereo not shown) [Example 34, 2-(4-Hydroxycyclohexylamino)-4-(5-(5-(methylamino)pyridin-3-yl)isoquinolin-1-yl)benzamide]	50 nM	140 nM
CCCNc1cncc(-c2cccc3c(-c4ccc(C(N)=O)c(NC5CCC(O)CC5)c4)nccc23)c1 (stereo not shown) [Example 35, 2-(4-Hydroxycyclohexylamino)-4-(5-(5-(propylamino)pyridin-3-yl)isoquinolin-1-yl)benzamide]	460 nM	1490 nM
CN(CCO)CNC(=O)c1ccc(-c2nccc3c(-c4cnc5ccccc5c4)cccc23)cc1NC1CCC(O)CC1 (stereo not shown) [Example 37, 2-(4-Hydroxycyclohexylamino)-N-(((2-hydroxyethyl)(methyl)amino)methyl)-4-(5-(quinolin-3-yl)isoquinolin-1-yl)benzamide]	60 nM	370 nM
CN(C)CNC(=O)c1ccc(-c2nccc3c(-c4cnc5ccccc5c4)cccc23)cc1NC1CCC(O)CC1 (stereo not shown) [Example 38, N-((dimethylamino)methyl)-2-(4-hydroxycyclohexylamino)-4-(5-(quinolin-3-yl)isoquinolin-1-yl)benzamide]	40 nM	980 nM
NC(=O)c1ccc(-c2nccc3c(-c4cnc5cc[nH]c5c4)cccc23)cc1NC1CCC(O)CC1 (stereo not shown) [Example 39, 4-(5-(1H-Pyrrolo[3,2-b]pyridin-6-yl)isoquinolin-1-yl)-2-(4-hydroxycyclohexylamino)benzamide]	10 nM	130 nM
Cc1nc2ncc(-c3cccc4c(-c5ccc(C(N)=O)c(NC6CCC(O)CC6)c5)nccc34)cc2[nH]1 (stereo not shown) [Example 40, 2-(4-Hydroxycyclohexylamino)-4-(5-(2-methyl-1H-imidazo[4,5-b]pyridin-6-yl)isoquinolin-1-yl)benzamide]	540 nM	150 nM
CCc1nc2ncc(-c3cccc4c(-c5ccc(C(N)=O)c(NC6CCC(O)CC6)c5)nccc34)cc2[nH]1 (stereo not shown) [Example 41, 4-(5-(2-Ethyl-1H-imidazo[4,5-b]pyridin-6-yl)isoquinolin-1-yl)-2-(4-hydroxycyclohexylamino)benzamide]	1270 nM	390 nM
NC(=O)c1ccc(-c2nccc3c(-c4cncnc4)cccc23)cc1NC1CCC(O)CC1 (stereo not shown) [Example 43, 2-(4-Hydroxycyclohexylamino)-4-(5-(pyrimidin-5-yl)isoquinolin-1-yl)benzamide]	1100 nM	690 nM
NC(=O)c1ccc(-c2nccc3c(-c4cnc5cc(C=O)ccc5c4)cccc23)cc1NC1CCC(O)CC1 (stereo not shown) [Example 45, 4-(5-(7-Formylquinolin-3-yl)isoquinolin-1-yl)-2-(4-hydroxycyclohexylamino)benzamide]	30 nM	220 nM
Cn1cc(-c2cn(-c3cccc4c(-c5ccc(C(N)=O)c(NC6CCC(O)CC6)c5)nccc34)cn2)cn1 (stereo not shown) [Example 48, 2-(4-Hydroxycyclohexylamino)-4-(5-(4-(1-methyl-1H-pyrazol-4-yl)-1H-imidazol-1-yl)isoquinolin-1-yl)benzamide]	20 nM	70 nM
NC(=O)c1ccc(-c2nccc3c(-c4cnc5ccc(CN6CCOCC6)cc5c4)cccc23)cc1NC1CCC(O)CC1 (stereo not shown) [Example 49, 2-(4-Hydroxycyclohexylamino)-4-(5-(6-(morpholinomethyl)quinolin-3-yl)isoquinolin-1-yl)benzamide]	400 nM	1560 nM
CC(C)n1cc(-c2cn(-c3cccc4c(-c5ccc(C(N)=O)c(NC6CCC(O)CC6)c5)nccc34)cn2)cn1 (stereo not shown) [Example 53, 2-(4-Hydroxycyclohexylamino)-4-(5-(4-(1-isopropyl-1H-pyrazol-4-yl)-1H-imidazol-1-yl)isoquinolin-1-yl)benzamide]	40 nM	120 nM
CNC(=O)c1ccc(-c2cccc3c(-c4ccc(C(N)=O)c(NC5CCC(O)CC5)c4)nccc23)cn1 (stereo not shown) [Example 56, 5-(1-(4-Carbamoyl-3-(4-hydroxycyclohexylamino)phenyl)isoquinolin-5-yl)-N-methylpicolinamide]	470 nM	370 nM
CNc1cc(-c2nccc3c(-n4cnc(-c5cnn(C)c5)c4)cccc23)ccc1C(N)=O [Example 58, 4-(5-(4-(1-Methyl-1H-pyrazol-4-yl)-1H-imidazol-1-yl)isoquinolin-1-yl)-2-(methylamino)benzamide]	1440 nM	250 nM
Cn1cc(-c2cn(-c3cccc4c(-c5ccc(C(N)=O)c(NCC6CCCO6)c5)nccc34)cn2)cn1 (stereo not shown) [Example 59, 4-(5-(4-(1-Methyl-1H-pyrazol-4-yl)-1H-imidazol-1-yl)isoquinolin-1-yl)-2-((tetrahydrofuran-2-yl)methylamino)benzamide]	90 nM	100 nM

From patent US8912181B2 (Taiho Pharmaceutical Co., Ltd., priority 2011, dated 2014)
